Assay results: patent US20120129878A1, “TABLET” (Takeda Pharmaceutical Company Limited, priority 2009, published 2012)

Target: dipeptidyl peptidase (DPP-IV) (Homo sapiens, UniProt P27487)
Test: DPP-IV inhibitory activity (statement only)
Format: biochemical
Settings: metabolite of compound (A); statement without data

Chain of dipeptidyl peptidase (DPP-IV) (P27487 whole entry, species assumed): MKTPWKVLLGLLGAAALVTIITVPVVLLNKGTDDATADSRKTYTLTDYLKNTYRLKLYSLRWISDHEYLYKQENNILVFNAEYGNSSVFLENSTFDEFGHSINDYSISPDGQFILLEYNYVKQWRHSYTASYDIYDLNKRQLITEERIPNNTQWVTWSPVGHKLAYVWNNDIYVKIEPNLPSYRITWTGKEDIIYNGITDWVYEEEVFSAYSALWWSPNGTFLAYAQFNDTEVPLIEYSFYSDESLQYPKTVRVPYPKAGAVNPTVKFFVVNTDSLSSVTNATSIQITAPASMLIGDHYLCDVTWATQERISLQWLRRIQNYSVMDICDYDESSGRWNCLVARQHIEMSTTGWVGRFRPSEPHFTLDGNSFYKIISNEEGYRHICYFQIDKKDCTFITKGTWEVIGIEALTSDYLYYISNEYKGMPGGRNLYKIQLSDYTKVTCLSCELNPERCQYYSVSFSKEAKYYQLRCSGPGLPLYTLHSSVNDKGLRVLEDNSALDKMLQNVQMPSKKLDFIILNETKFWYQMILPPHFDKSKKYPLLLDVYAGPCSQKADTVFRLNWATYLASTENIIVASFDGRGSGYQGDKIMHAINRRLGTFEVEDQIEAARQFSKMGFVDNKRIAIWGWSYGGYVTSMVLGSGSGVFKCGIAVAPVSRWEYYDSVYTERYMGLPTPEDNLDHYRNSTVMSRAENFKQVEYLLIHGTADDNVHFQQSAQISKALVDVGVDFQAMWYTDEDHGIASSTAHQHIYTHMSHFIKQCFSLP

- DPP-IV inhibitory activity: has a DPP-IV inhibitory activity
SMILES: N#Cc1ccc(F)cc1Cn1c(N2CCC[C@@H](N)C2)cc(=O)[nH]c1=O
